Measured values as given in patent publication US11911383B2, “Oral solution formulation” (Pfizer Inc., priority 2018, dated 2024).
Values after ≈ are worked out from the molar mass of the structure shown. Read-outs that look alike come from different tables or passages of the source.

Experiments:
[1] = Solubility of palbociclib (free base) in various aqueous buffers, with total degradation by HPLC; assay type: physicochemical; settings: for solubility at 28 h: aqueous buffer solution, 25 °C, thermodynamic from solid
Method: The solubility of palbociclib (free base) was assessed in various aqueous buffer solutions and mixtures thereof. The buffers were prepared at concentrations ranging from 0.01 M to 0.2 M and at pH values ranging from 2.0 to 8.4. Samples were prepared by weighing and transferring approximately 200 mg of palbociclib to 3-4 mL of the buffer. The solutions were vortexed and placed in a temperature cycle chamber for 8 hours at 25° C., followed by 12 hours at 40° C., then 8 hours at 25° C. The resulting solutions were then analyzed by HPLC to determine the solubility (mg/mL) of palbociclib in the buffer. […] NT=Not tested.

[2] = Effect of pH on the oral aqueous solution (degradation, precipitation); assay type: physicochemical; settings: pH values above about 4.3
Source text: In some embodiments, the oral aqueous solution has a pH of from about 3.0 to about 4.5. In some embodiments, the oral aqueous solution has a pH of from about 3.5 to about 4.3. In frequent embodiments, the oral aqueous solution has a pH of from about 3.6 to about 4.0. In some such embodiments, the oral aqueous solution has a pH of about 3.8.

[3] = Sample P: 0.032M Malic Acid, pH NT
[4] = Sample Q: 0.02M Malic Acid, pH NT
[5] = Sample R: 0.01M Malic Acid, pH NT
[6] = aqueous buffer systems of lactic acid and malic acid

SMILES: CC(=O)c1c(C)c2cnc(Nc3ccc(N4CCNCC4)cn3)nc2n(C2CCCC2)c1=O [palbociclib, 6-acetyl-8-cyclopentyl-5-methyl-2-(5-piperazin-1-yl-pyridin-2-ylamino)-8H-pyrido[2,3-d]pyrimidin-7-one]
- Total Degradation ([1]; Sample A: 0.2M Citric Acid, pH 2.02, new HPLC peaks greater than 0.05%): 0.52%
- Total Degradation ([1]; Sample B: 0.2M Malic Acid, pH 2.00): 0.20%
- Total Degradation ([1]; Sample C: 0.2M DL Lactic Acid, pH 2.07): 0%
- Total Degradation ([1]; Sample D: 0.2M Succinic acid, pH 2.42): 0.66%
- Total Degradation ([1]; Sample E: 0.2M Sodium succinate, pH 8.38): 0%
- Total Degradation ([1]; Sample F: 0.2M Sodium dihydrogen phosphate dihydrate, pH 2.01): 1.27%
- Total Degradation ([1]; Sample G: 9.5 mL D + 0.5 mL E, pH 3.15): 0.29%
- Total Degradation ([1]; Sample H: 9 mL D + 1 mL E, pH 3.45): 3.03%
- Total Degradation ([1]; Sample I: 8 mL D + 2 mL E, pH 3.93): 3.43%
- Total Degradation ([1]; Sample J: 5 mL D + 5 mL E, pH 4.62): 1.31%
- Total Degradation ([1]; Sample K: 5 mL D + 10 mL E, pH 4.98): 1.08%
- Total Degradation ([1]; Sample L: 5 mL D + 15 mL E, pH 5.25): 1.46%
- Total Degradation ([1]; Sample M: 0.1M DL Lactic Acid, pH 2.31): 0.00%
- Total Degradation ([1]; Sample N: 0.05M DL Lactic Acid, pH 2.46): 0.00%
- Total Degradation ([1]; Sample O: 0.01M DL Lactic Acid, pH 2.83): 0.19%
- Solubility [1, 3]: 530 µg/mL (≈ 1.18 mM)
- Total Degradation [1, 3]: 1.66%
- Solubility [1, 4]: 600 µg/mL (≈ 1.34 mM)
- Total Degradation [1, 4]: 1.62%
- Solubility [1, 5]: 600 µg/mL (≈ 1.34 mM)
- Total Degradation [1, 5]: 1.63%
- solubility at 28 h ([1]; pH 2, aqueous buffer, Sample B: 0.2M Malic Acid, pH 2.00, read-out: Solubility): 15700 µg/mL (≈ 35.1 mM)
- solubility at 28 h ([1]; pH 2.01, aqueous buffer, Sample F: 0.2M Sodium dihydrogen phosphate dihydrate, pH 2.01, read-out: Solubility): 650 µg/mL (≈ 1.45 mM)
- solubility at 28 h ([1]; pH 2.02, aqueous buffer, Sample A: 0.2M Citric Acid, pH 2.02, temperature cycle 25/40/25° C., read-out: Solubility): 4000 µg/mL (≈ 8.94 mM)
- solubility at 28 h ([1]; pH 2.07, aqueous buffer, 0.2M DL lactic acid buffer, read-out: Amount dissolved with solution still clear (saturated solubility not yet reached)): > 45700 µg/mL
- solubility at 28 h ([1]; pH 2.07, aqueous buffer, Sample C: 0.2M DL Lactic Acid, pH 2.07, read-out: Solubility): 45700 µg/mL (≈ 102 mM)
- solubility at 28 h ([1]; pH 2.31, aqueous buffer, Sample M: 0.1M DL Lactic Acid, pH 2.31, read-out: Solubility): 36300 µg/mL (≈ 81.1 mM)
- solubility at 28 h ([1]; pH 2.42, aqueous buffer, Sample D: 0.2M Succinic acid, pH 2.42, read-out: Solubility): 1100 µg/mL (≈ 2.46 mM)
- solubility at 28 h ([1]; pH 2.46, aqueous buffer, Sample N: 0.05M DL Lactic Acid, pH 2.46, read-out: Solubility): 16200 µg/mL (≈ 36.2 mM)
- solubility at 28 h ([1]; pH 2.83, aqueous buffer, Sample O: 0.01M DL Lactic Acid, pH 2.83, read-out: Solubility): 3800 µg/mL (≈ 8.49 mM)
- solubility at 28 h ([1]; pH 3.15, aqueous buffer, Sample G: 9.5 mL D + 0.5 mL E (succinic acid/sodium succinate), pH 3.15, read-out: Solubility): 1700 µg/mL
- solubility at 28 h ([1]; pH 3.45, aqueous buffer, Sample H: 9 mL D + 1 mL E, pH 3.45, read-out: Solubility): 340 µg/mL
- solubility at 28 h ([1]; pH 3.93, aqueous buffer, Sample I: 8 mL D + 2 mL E, pH 3.93, read-out: Solubility): 67 µg/mL
- solubility at 28 h ([1]; pH 4.62, aqueous buffer, Sample J: 5 mL D + 5 mL E, pH 4.62, read-out: Solubility): 68 µg/mL
- solubility at 28 h ([1]; pH 4.98, aqueous buffer, Sample K: 5 mL D + 10 mL E, pH 4.98, read-out: Solubility): 55 µg/mL
- solubility at 28 h ([1]; pH 5.25, aqueous buffer, Sample L: 5 mL D + 15 mL E, pH 5.25, read-out: Solubility): 91 µg/mL
- solubility at 28 h ([1]; pH 8.38, aqueous buffer, Sample E: 0.2M Sodium succinate, pH 8.38, read-out: Solubility): 4 µg/mL (≈ 0.00894 mM)
- Degradation (in words) [1, 6]: minimal degradation
- Solubility (in words) [1, 6]: significantly enhanced solubility
- Precipitation of the API [2]: Some precipitation
